pIC50: −log10 of the molar value.

We go through 39 compounds from US10688093B2, “Methods, compositions, and uses of novel Fyn kinase inhibitors” (priority 2015, dated 2020).

The target of the test is full-length recombinant human FYN A (Homo sapiens (Human), UniProt P06241). The test is described as follows: ADP-Glo Kinase Assay of FYN kinase inhibition. Format: biochemical. To be noted: primary screen, initial compounds. The gist of the method:
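GST-tagged full-length FYN A (baculovirus, Sf9) at 3 pg preincubated 30 min RT with compound (10-point 3-fold series from 10 μM) in Tris pH 7.5/MgCl2 buffer. 12-mer tyrosine peptide plus 12.5 pmol ATP added, 90 min RT; ADP measured by ADP-Glo luminescence, IC50 from dose-response.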
In general terms: ADP-Glo first removes unused ATP, then detects ADP through luciferase.

Sequence of full-length recombinant human FYN A (P06241 whole entry): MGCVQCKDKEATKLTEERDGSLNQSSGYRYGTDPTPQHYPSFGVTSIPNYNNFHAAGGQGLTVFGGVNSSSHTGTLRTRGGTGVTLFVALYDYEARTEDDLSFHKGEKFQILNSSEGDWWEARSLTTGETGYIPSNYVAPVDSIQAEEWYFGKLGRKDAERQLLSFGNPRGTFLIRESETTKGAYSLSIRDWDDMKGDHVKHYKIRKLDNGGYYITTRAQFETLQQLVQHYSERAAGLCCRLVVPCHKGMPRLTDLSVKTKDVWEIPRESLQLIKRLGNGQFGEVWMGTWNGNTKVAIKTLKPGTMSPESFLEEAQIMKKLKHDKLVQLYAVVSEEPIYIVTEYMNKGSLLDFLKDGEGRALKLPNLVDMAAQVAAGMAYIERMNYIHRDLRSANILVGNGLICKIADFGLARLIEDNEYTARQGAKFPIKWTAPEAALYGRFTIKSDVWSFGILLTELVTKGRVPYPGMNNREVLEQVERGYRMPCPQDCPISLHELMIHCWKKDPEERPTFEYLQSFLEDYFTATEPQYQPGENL

As to `COc1ccc(-c2cnc3cnc(-c4ccc(N5CCN(C)CC5)cc4)cn23)cc1` [Compound 223, 3-(4-methoxyphenyl)-6-[4-(4-methyl-piperazin-1-yl)phenyl] imidazo[1,2-a]pyrazine], the pIC50 is 5.28. For the compound `O=C(NCCO)c1cccc(-c2cn3c(-c4ccsc4)cnc3cn2)c1` [Compound 224, N-(2-hydroxyethyl)-3-[3-(3-thienyl)imidazo [1,2-a]pyrazin-6-yl]benzamide], the pIC50 was 5.44.

Take `CN1CCN(c2ccc(-c3cn4c(-c5ccsc5)cnc4cn3)cn2)CC1` [Compound 225, 6-[6-(4-methylpiperazin-1-yl)-3-pyridyl]-3-(3-thienyl)imidazo [1,2-a]pyrazine]: the pIC50 is 5.15. Under `Nc1ccc(-c2cn3c(-c4ccsc4)cnc3cn2)cn1` [Compound 226, 5-[3-(3-thienyl)imidazo [1,2-a]pyrazin-6-yl]pyridin-2-amine] stands 5.61; under `c1cc(-c2cn3c(-c4ccsc4)cnc3cn2)cs1` [Compound 227, 3,6-bis(3-thienyl)imidazo [1,2-a]pyrazine], 5.07. For `CN(C)CCNC(=O)c1ccc(-c2cn3c(-c4ccsc4)cnc3cn2)cc1` [Compound 228, N-(2-dimethylamino-ethyl)-4-[3-(3-thienyl)imidazo [1,2-a]pyrazin-6-yl]benzamide] the value was 5.72; for `Cn1cc(-c2cnc3cnc(-c4ccccc4Oc4ccccc4)cn23)cn1` [Compound 229, 3-(1-methylpyrazol-4-yl)-6-(2-phenoxyphenyl) imidazo[1,2-a]pyrazine], 5.74; for `CN1CCN(c2ccc(-c3cn4c(-c5cccc(O)c5)cnc4cn3)cn2)CC1` [Compound 230, 3-[6-[6-(4-methylpiperazin-1-yl)-3-pyridyl]imidazo [1,2-a]pyrazin-3-yl]phenol], 5.50. On to `CN(C)CCCOc1ccc(-c2cn3c(-c4ccc5c(c4)OCO5)cnc3cn2)cn1` [Compound 231, 3-[[5-[3-(1,3-benzodioxol-5-yl)imidazo[1,2-a]pyrazin-6-yl]-2-pyridyl]oxy]-N,N-dimethyl-propan-1-amine], for which the pIC50 was 5.01. For `CCOc1cccc(-c2cn3c(-c4cccc(O)c4)cnc3cn2)c1` [Compound 232, 3-[6-(3-ethoxyphenyl)imidazo[1,2-a]pyrazin-3-yl]phenol] the value was 5.17.

In the case of `CN1CCN(c2ccc(-c3cn4c(-c5ccc6c(c5)OCO6)cnc4cn3)cc2)CC1` [Compound 233, 3-(1,3-benzodioxol-5-yl)-6-[4-(4-methylpiperazin-1-yl)phenyl] imidazo[1,2-a]pyrazine], the pIC50 is 5.10.

As for `Oc1cccc(-c2cnc3cnc(-c4ccsc4)cn23)c1` [Compound 234, 3-[6-(3-thienyl)imidazo [1,2-a]pyrazin-3-yl]phenol], the pIC50 was 5.60.

As to `CN1CCN(c2ccc(-c3cn4c(-c5cccc(O)c5)cnc4cn3)cc2)CC1` [Compound 235, 3-[6-[4-(4-methyl-piperazin-1-yl)phenyl]imidazo [1,2-a]pyrazin-3-yl]phenol], the pIC50 is 5.80. For `CN(C)CCCNC(=O)c1ccc(-c2cn3c(-c4ccc(Cl)cc4)cnc3cn2)cc1` [Compound 236, 4-[3-(4-chlorophenyl)imidazo[1,2-a]pyrazin-6-yl]-N-[3-(dimethylamino)propyl]benzamide] the value was 5.31; for `CN(C)CCNC(=O)c1ccc(-c2cn3c(-c4ccc5c(c4)OCO5)cnc3cn2)cc1` [Compound 237, 4-[3-(1,3-benzodioxol-5-yl)imidazo[1,2-a]pyrazin-6-yl]-N-(2-dimethyl-aminoethyl) benzamide], 5.42. Under `Nc1ccc(-c2cn3c(-c4cccc(O)c4)cnc3cn2)cn1` [Compound 238, 3-[6-(6-amino-3-pyridyl)imidazo [1,2-a]pyrazin-3-yl]phenol] stands 5.54; under `CN(C)CCNC(=O)c1ccc(-c2cn3c(-c4cccc(O)c4)cnc3cn2)cc1` [Compound 239, N-(2-dimethylamino-ethyl)-4-[3-(3-hydroxyphenyl)imidazo[1,2-a]pyrazin-6-yl]benzamide], 6.09.

`CN(C)CCNC(=O)c1ccc(-c2cn3c(-c4ccc(Cl)cc4)cnc3cn2)cc1` [Compound 240, 4-[3-(4-chlorophenyl)imidazo[1,2-a]pyrazin-6-yl]-N-(2-dimethylamino-ethyl)benzamide]: the pIC50 was 5.38. Regarding `Oc1cccc(-c2cnc3cnc(-c4ccc(NCCN5CCOCC5)nc4)cn23)c1` [Compound 241, 3-[6-[6-(2-morpholino-ethylamino)-3-pyridyl]imidazo [1,2-a]pyrazin-3-yl]phenol], the pIC50 is 5.53. Consider `CN(C)CCCNC(=O)c1ccc(-c2cn3c(-c4cccc(O)c4)cnc3cn2)cc1` [Compound 242, N-[3-(dimethylamino)propyl]-4-[3-(3-hydroxyphenyl)imidazo[1,2-a]pyrazin-6-yl]benzamide], for which the pIC50 is 5.79.

As to `O=C(NCCO)c1ccc(-c2cn3c(-c4cccc(O)c4)cnc3cn2)cc1` [Compound 243, N-(2-hydroxyethyl)-4-[3-(3-hydroxyphenyl)imidazo[1,2-a]pyrazin-6-yl]benzamide], the pIC50 is 5.76. With `CN(C)CCCNC(=O)c1ccc(-c2cn3c(-c4ccc5c(c4)OCO5)cnc3cn2)cc1` [Compound 244, 4-[3-(1,3-benzodioxol-5-yl)imidazo[1,2-a]pyrazin-6-yl]-N-[3-(dimethylamino)propyl]benzamide], the pIC50 was 5.22.

`CN1CCN(c2ccc(-c3cn4c(-c5ccccc5)cnc4cn3)cn2)CC1` [Compound 245, 6-[6-(4-methylpiperazin-1-yl)-3-pyridyl]-3-phenyl-imidazo[1,2-a]pyrazine]: the pIC50 was 4.96.

For the compound `CC(C)N1CCN(c2ccc(-c3cn4c(-c5cccc(O)c5)cnc4cn3)cc2)CC1` [Compound 246, 3-[6-[4-(4-isopropyl-piperazin-1-yl)phenyl]imidazo [1,2-a]pyrazin-3-yl]phenol], the pIC50 is 5.58. Under `Nc1ccc(-c2cn3c(-c4ccc5c(c4)OCO5)cnc3cn2)cn1` [Compound 247, 5-[3-(1,3-benzodioxol-5-yl)imidazo[1,2-a]pyrazin-6-yl]pyridin-2-amine] stands 4.99.

On to `CN(C)CCCOc1ccc(-c2cn3c(-c4ccc(O)cc4)cnc3cn2)cn1` [Compound 248, 4-[6-[6-[3-(dimethylamino)propoxy]-3-pyridyl]imidazo [1,2-a]pyrazin-3-yl]phenol], for which the pIC50 is 5.88.

Take `Oc1ccc(-c2cnc3cnc(-c4ccc(NCCN5CCOCC5)nc4)cn23)cc1` [Compound 249, 4-[6-[6-(2-morpholino-ethylamino)-3-pyridyl]imidazo [1,2-a]pyrazin-3-yl]phenol]: the negative-log IC50 (pIC50) is 5.88. Consider `CN1CCN(c2ccc(-c3cn4c(-c5ccc(O)cc5)cnc4cn3)cn2)CC1` [Compound 250, 4-[6-[6-(4-methylpiperazin-1-yl)-3-pyridyl]imidazo [1,2-a]pyrazin-3-yl]phenol], for which the pIC50 is 5.66. For `CN(C)C(=O)c1cccc(-c2cnc3sc(NC4CCCCC4)nn23)c1` [Compound 251, 3-[2-(cyclo-hexylamino)imidazo[2,1-a] [1,3,4]thiadiazol-5-yl]-N,N-dimethyl-benzamide] the value was 6.14; for `CN(C)C(=O)c1cccc(-c2cnc3sc(NCCc4ccc(S(N)(=O)=O)cc4)nn23)c1` [Compound 252, N,N-dimethyl-3-[2-[2-(4-sulfamoylphenyl)ethylamino]imidazo[2,1-a] [1,3,4]thiadiazol-5-yl]benzamide], 6.04. Under `CN(C)C(=O)c1cccc(-c2cnc3sc(NC4CCC(O)CC4)nn23)c1` (stereo not drawn) [Compound 253, 3-[2-[(4-hydroxycyclo-hexyl)amino]imidazo[2,1-b] [1,3,4]thiadiazol-5-yl]-N,N-dimethyl-benzamide] stands 6.27; under `CC(=O)c1cccc(-c2cnc3sc(NC4CCC(O)CC4)nn23)c1` (stereo not drawn) [Compound 254, 1-[3-[2-[(4-hydroxycyclo-hexyl)amino]imidazo[2,1-a] [1,3,4]thiadiazol-5-yl]phenyl] ethanone], 6.31; under `COc1ccc(-c2cnn3c(N)c(-c4cccc(Cl)c4)cnc23)cc1OC` [Compound 255, 6-(3-chlorophenyl)-3-(3,4-dimethoxyphenyl) pyrazolo[1,5-a]pyrimidin-7-amine], 6.09. Under `CC(=O)Nc1cccc(-c2cnc3sc(NCc4ccco4)nn23)c1` [Compound 256, N-[3-[2-(2-furylmethylamino)imidazo[2,1-a] [1,3,4]thiadiazol-5-yl]phenyl] acetamide] stands 5.34.

Turning to `CN(C)C(=O)c1cccc(-c2cnc3sc(NCC4CC4)nn23)c1` [Compound 257, 3-[2-(cyclopropyl-methylamino)imidazo[2,1-d] [1,3,4]thiadiazol-5-yl]-N,N-dimethyl-benzamide], the pIC50 is 6.01. `CC(C)CNc1nn2c(-c3cccc(C(=O)N(C)C)c3)cnc2s1` [Compound 258, 3-[2-(isobutylamino)imidazo[2,1-d] [1,3,4]thiadiazol-5-yl]-N,N-dimethyl-benzamide]: the pIC50 was 6.55. Turning to `CN(C)C(=O)c1cccc(-c2cnc3sc(NCc4ccc(F)cc4)nn23)c1` [Compound 259, 3-[2-[(4-fluorophenyl)methylamino]imidazo[2,1-b] [1,3,4]thiadiazol-5-yl]-N,N-dimethyl-benzamide], the pIC50 was 5.56. Consider `CC(=O)Nc1cccc(-c2cnc3sc(NCc4cccs4)nn23)c1` [Compound 260, N-[3-[2-(2-thienylmethyl-amino)imidazo [2,1-b] [1,3,4]thiadiazol-5-yl]phenyl] acetamide], for which the pIC50 is 5.41. For `Cn1cc(-c2cnc3sc(NCCc4ccc(S(N)(=O)=O)cc4)nn23)cn1` [Compound 261, 4-[2-[[5-(1-methylpyrazol-4-yl)imidazo[2,1-d][1,3,4]thiadiazol-2-yl]amino]ethyl] benzene-sulfonamide] the value was 5.65.

By pIC50 is commonly meant −log10 of the IC50, conventionally taken in molar units.
